Assay results reported in patent US20110160059A1, “Herbicidal compositions comprising flufenacet” (Bayer CropScience AG, priority 2009, published 2011).

Key:
Format in all cases: in vivo
[1] = system: APESV=Apera spica-venti=weed; experiment: Greenhouse trial, post-emergence action against weeds (test method 1); details: PO application, about 3 weeks after application
Description: (§1) In the standard design of the test, seeds of various broad-leaved weed and weed grass biotypes (origins) were sown in a 8-13 cm diameter pot filled with natural soil of a standard field soil (loamy silt; non-sterile) and covered with a covering soil layer of about 1 cm. The pots were then cultivated in a greenhouse (12-16 h of light, temperature day 20-22° C., night 15-18° C.) until the time of application. The pots were treated on a laboratory track sprayer with spray liquors comprising the compositions according to the invention, mixtures of the prior art or components used individually. Application of the active compounds or active compound combinations formulated as WG, WP, EC or otherwise was carried out at the appropriate growth stages of the plants. The application rate for the spray application was 100-600 l of water/ha. After the treatment, the plants were returned to the greenhouses.
(§2) About 3 weeks after the application, the soil action or/and foliar action was assessed visually according to a scale of 0-100% in comparison to an untreated comparative group: 0%=no noticeable effect compared to the untreated comparative group; 100%=full effect compared to the untreated comparative group.
(§3) (notes: the term “seeds” also includes vegetative propagation forms such as, for example, rhizome pieces; abbreviations used: h light=hours of illumination, g of AS/ha=gram of active substance per hectare, l/ha=liter per hectare, S=sensitive, R=resistant) • 1. Post-emergence action against weeds: seeds of various broad-leaved weed and weed grass biotypes (origins) were sown in a 8-13 cm diameter pot filled with natural soil of a standard field soil (loamy silt; non-sterile) and covered with a covering soil layer of about 1 cm. The pots were then cultivated in a greenhouse (12-16 h of light, temperature day 20-22° C., night 15-18° C.) until the time of application. The pots were treated at various BBCH stages between 11-25 of the seeds/plants, i.e. generally between two to three weeks after the start of the cultivation, on a laboratory track sprayer with spray liquors comprising the compositions according to the invention, mixtures or components used individually, as WG, WP, EC or other formulations. The application rate for the spray application was 100-600 l of water/ha. After the treatment, the plants were returned to the greenhouses and, when required, treated with fertilizer and watered. • 2. Selective post-emergence action: seeds of various crop species (origins) were sown in a 8-13 cm diameter pot filled with natural soil of a standard field soil (loamy silt; non-sterile) and covered with a covering soil layer of about 1 cm. The pots were then cultivated in a greenhouse (12-16 h of light, temperature day 20-22° C., night 15-18° C.) until the time of application. The pots were treated at various BBCH stages between 11-32 of the seeds/plants, i.e. generally between two to four weeks after the start of the cultivation, on a laboratory track sprayer with spray liquors comprising the compositions according to the invention, mixtures or components used individually, as WG, WP, EC or other formulations. The application rate for the spray application was 100-600 l of water/ha. After the treatment, the plants were returned to the greenhouses and, when required, treated with fertilizer and watered. The pots were cultivated in a greenhouse (12-16 h light, temperature day 20-22° C., night 15-18° C.).
(§4) Insofar as herbicidal effects of the compositions according to the invention compared to mixtures of the prior art or compared to components applied individually against economically important mono- and dicotyledonous harmful plants were the center of attention, the synergistic herbicidal activities were calculated using Colby's formula (cf. S. R. Colby; Weeds 15 (1967), 20-22): […]

[2] = system: VIOAR=Viola arvensis=weed; experiment: as above; details: PO application, about 3 weeks after application
Description: as §1, §2, §3, §4

[3] = system: HORVS=Hordeum vulgare, summer barley=crop plant; experiment: Greenhouse trial, selective post-emergence action on crop (test method 2)
Description: as §1, §2
(notes: the term “seeds” also includes vegetative propagation forms such as, for example, rhizome pieces; abbreviations used: h light=hours of illumination, g of AS/ha=gram of active substance per hectare, l/ha=liter per hectare, S=sensitive, R=resistant) • 1. […]
as §4

SMILES: CC(Oc1ccc(Oc2ccc(Cl)cc2Cl)cc1)C(=O)O (racemic) [(B) diclofop, (±)-2-[4-(2,4-dichlorophenoxy)phenoxy]propanoic acid]
- activity on APESV, visual scale 0-100% vs untreated ([1]; 378 g of AS/ha): 0%
- activity on VIOAR, visual scale 0-100% vs untreated ([2]; 378 g of AS/ha): 0%
- activity (crop damage) on HORVS, visual scale 0-100% vs untreated ([3]; PO application, 378 g of AS/ha, about 3 weeks after application, greenhouse): 20%

SMILES: CC(C)N(C(=O)COc1nnc(C(F)(F)F)s1)c1ccc(F)cc1 [(A) flufenacet, N-(4-fluorophenyl)-N-(1-methylethyl)-2-[[5-(trifluoromethyl)-1,3,4-thiadiazol-2-yl]oxy]acetamide]
- activity on APESV, visual scale 0-100% vs untreated ([1]; 120 g of AS/ha): 60%
- activity on VIOAR, visual scale 0-100% vs untreated ([2]; 120 g of AS/ha): 40%
- activity (crop damage) on HORVS, visual scale 0-100% vs untreated ([3]; Hordeum vulgare (summer barley), in vivo, po): 40%

SMILES: CSc1nnc(C(C)(C)C)c(=O)n1N [(C) metribuzin, 4-amino-6-(1,1-dimethylethyl)-3-(methylthio)-1,2,4-triazin-5(4H)-one]
- activity on APESV, visual scale 0-100% vs untreated ([1]; 140 g of AS/ha): 79%
- activity on VIOAR, visual scale 0-100% vs untreated ([2]; 140 g of AS/ha): 90%
- activity (crop damage) on HORVS, visual scale 0-100% vs untreated ([3]; PO application, 140 g of AS/ha, about 3 weeks after application, greenhouse): 70%
